According to US10654925B2, “Anti-marinobufagenin antibodies and uses thereof” (priority 2018, dated 2020):
Marks after values point to notes of the source that are not given here.

Experiments:
[1] = tested on: PKC-δ in the nucleus of primary rat cardiac fibroblasts; assay: Inhibition of MBG-induced PKC-δ nuclear translocation (Western blot); settings: MBG at 2 nM
Protocol: MBG was incubated with an anti-MBG antibody prior to addition to cultured primary rat cardiac fibroblasts. Nuclei were isolated 30 min later and analyzed for amount of PKC-6.

[2] = tested on: pregnant Sprague-Dawley rats; assay: DOCA/saline rat model of pre-eclampsia; assay type: in vivo; settings: tail cuff; baseline; antibodies 2.2 mg/kg/d i.p. days 16-18 in PDS (DOCA/saline) rats; MBG 7.65 μg/kg/d in normal pregnant rats (NPM); N = 10
[3] = tested on: pregnant Sprague-Dawley rats; assay: DOCA/saline rat model of pre-eclampsia; assay type: in vivo; settings: antibodies 2.2 mg/kg/d i.p. days 16-18 in PDS rats
Protocol: Female Sprague-Dawley rats (200-250 g, Charles River Laboratories) were acclimatized for 1 week, and mated with male Sprague-Dawley rats (275-300 g). Pregnancy was confirmed by the presence of vaginal plugs or by examination of vaginal smears. Each rat was housed separately.
Five groups of rats were studied (n=10 per group): Group 1 (NP): normal pregnant rats; Group 2 (PDS): pregnant rats injected i.p. initially with 12.5 mg of DOCA in a depot form, followed by a weekly i.p. injection of 6.5 mg of DOCA, and whose drinking water is replaced with 0.9% saline; Group 3 (NPM): Normal pregnant rats given daily injections of MBG (7.65 μg per kg body weight per day) once pregnancy was established on day four of the experiment; Group 4 (PDS-3E9): rats administered DOCA and saline as for Group 2, and also given the murine anti-MBG antibody 3E9 (2.2 mg per kg body weight per day) on days 16, 17, and 18 of pregnancy; and Group 5 (PDS-H3L2): rats administered DOCA and saline as for Group 2, and also given the humanized anti-MBG antibody H3L2 (2.2 mg per kg body weight per day) on days 16, 17, and 18 of pregnancy.
Systolic blood pressure (BP) was measured by tail cuff at days 17-19. At least 3 readings are taken after BP has stabilized, and the mean of these values was calculated. The reported BP values are the mean of the daily measurements. At 18-20 days of pregnancy, 24-hour urine was collected in the absence of food to avoid contamination of the measurement of the protein amount in urine by any fallen food particles. Each rat was housed separately in a metabolic cage during this portion of the study. The 24-hour protein excretion was measured and was normalized to creatinine. The rats were sacrificed after the last measurement on days 18-20, and blood samples were taken. The number of fetal pups was counted and examined. The mean number of pups and any developmental or histological abnormalities in the pups were assessed. Statistical analysis was performed using analysis of variance and Tukey's post hoc test. A p value ≤0.05 was considered statistically significant.

human CTB cells = assay type: cell-based
Na^+K^+-ATPase (NKA) = assay: Na^+K^+-ATPase activity (Malachite Green Phosphate Assay); assay type: biochemical, rat; settings: NKA from rat heart (SLP fraction); Pi read as OD 630 nm; FIG. 4
Protocol: Na^+K^+-ATPase (NKA) was purified from rat heart. The NKA was collected as the sarcolemmal/particulate (SLP) fraction and frozen.
Na^+K^+-ATPase activity was measured as follows: aliquots of SLP were mixed with Reaction Buffer (200 mM Tris-HCl, pH 7.5, 200 mM NaCL, 30 mM MgCl2, 60 mM KCl, 10 mM EGTA, 100 μg/mL PMSF, 2 μg/mL pepstatin A, and 2 μg/mL aprotinin). Reactions were performed with or without MBG and with or without anti-MBG antibodies (1-100 μg/mL). Ouabain was used as positive control for NKA inhibition. Tubes were prewarmed, and ATP was added. Reactions were stopped and were placed on ice.
Phosphate was assayed using the Malachite Green Phosphate Assay. Phosphate standard or sample was added to each well of a 96-well plate, followed by Reagent A. Reagent B was added, with mixing and incubation. OD was then read at 630 nm in a microplate spectrophotometer.

Row | Structure (SMILES) | amount of PKC-δ in the nucleus, MBG alone compared to Control (vehicle) [1] | Blood Pressure-Initial [2] | % Malformed Pups ([3]; MBG 7.65 μg/kg/d in NPM rats) | No. Pups ([3]; MBG 7.65 μg/kg/d in NPM rats) | Urine Protein ([3]; normalized to creatinine, 18-20 days of pregnancy, MBG 7.65 μg/kg/d in NPM rats) | Blood Pressure-Final ([3]; tail cuff, 17-19 d of gestation, MBG 7.65 μg/kg/d in normal pregnant rats (NPM), N = 10) | PCNA expression, MBG compared to vehicle (DMSO) (human CTB cells) | phosphorylation of p38 MAPK, MBG compared to vehicle (DMSO) (human CTB cells) | secretion of P1GF, MBG compared to vehicle (DMSO) (human CTB cells) | secretion of VEGF, MBG compared to vehicle (DMSO) (human CTB cells) | secretion of sEng, MBG compared to vehicle (DMSO) (human CTB cells) | secretion of sFlt1, MBG compared to vehicle (DMSO) (human CTB cells) | inhibition of NKA activity (Na^+K^+-ATPase (NKA))
1 | C[C@]12CC[C@H](O)C[C@@]1(O)CC[C@@H]1[C@@H]2CC[C@]2(C)[C@@H](c3ccc(=O)oc3)C[C@H]3O[C@]132 [MBG, marinobufagenin] | induced an increase | 104 ± 4 mm Hg | 18 * % | 9.5 ± 1.3 | 6.4 ± 1.8 mg/24 h | 137 ± 5 mm Hg | significantly downregulated | increased | significantly reduced | significantly reduced | significantly increased | significantly increased | inhibit the NKA activity significantly
2 | C[C@@H]1O[C@@H](O[C@H]2C[C@@H](O)[C@]3(CO)[C@H]4[C@H](O)C[C@]5(C)[C@@H](C6=CC(=O)OC6)CC[C@]5(O)[C@@H]4CC[C@]3(O)C2)[C@H](O)[C@H](O)[C@H]1O [Ouabain, ouabain] | – | – | – | – | – | – | – | – | – | – | – | – | inhibit the NKA activity significantly
